Assay results as given in patent US7495007B2, “Spiroindolinone derivatives” (Hoffmann-La Roche Inc., priority 2006, dated 2009).
pIC50: −log10 of the molar value.

target: interaction between p53 and MDM2 proteins (recombinant GST-tagged MDM2, p53 peptide) (Homo sapiens, UniProt Q00987); assay: HTRF assay of inhibition of the p53-MDM2 interaction (GST-MDM2 binding to biotinylated p53 peptide); conditions: 0.02% BSA
Protocol: The ability of the compounds to inhibit the interaction between p53 and MDM2 proteins was measured by an HTRF (homogeneous time-resolved fluorescence) assay in which recombinant GST-tagged MDM2 binds to a peptide that resembles the MDM2-interacting region of p53 (Lane et al.). Binding of GST-MDM2 protein and p53-peptide (biotinylated on its N-terminal end) is registered by the FRET (fluorescence resonance energy transfer) between Europium (Eu)-labeled anti-GST antibody and streptavidin-conjugated Allophycocyanin (APC).
Test is performed in black flat-bottom 384-well plates (Costar) in a total volume of 40 uL containing: 90 nM biotinylate peptide, 160 ng/ml GST-MDM2, 20 nM streptavidin-APC (PerkinElmerWallac), 2 nM Eu-labeled anti-GST-antibody (PerkinElmerWallac), 0.2% bovine serum albumin (BSA), 1 mM dithiothreitol (DTT) and 20 mM Tris-borate saline (TBS) buffer as follows: Add 10 uL of GST-MDM2 (640 ng/ml working solution) in reaction buffer to each well. Add 10 uL diluted compounds (1:5 dilution in reaction buffer) to each well, mix by shaking. Add 20 uL biotinylated p53 peptide (180 nM working solution) in reaction buffer to each well and mix on shaker. Incubate at 37° C. for 1 h. Add 20 uL streptavidin-APC and Eu-anti-GST antibody mixture (6 nM Eu-anti-GST and 60 nM streptavidin-APC working solution) in TBS buffer with 0.2% BSA, shake at room temperature for 30 minutes and read using a TRF-capable plate reader at 665 and 615 nm (Victor 5, Perkin ElmerWallac). If not specified, the reagents were purchased from Sigma Chemical Co.

Chain of interaction between p53 and MDM2 proteins (recombinant GST-tagged MDM2, p53 peptide) (Q00987 whole entry): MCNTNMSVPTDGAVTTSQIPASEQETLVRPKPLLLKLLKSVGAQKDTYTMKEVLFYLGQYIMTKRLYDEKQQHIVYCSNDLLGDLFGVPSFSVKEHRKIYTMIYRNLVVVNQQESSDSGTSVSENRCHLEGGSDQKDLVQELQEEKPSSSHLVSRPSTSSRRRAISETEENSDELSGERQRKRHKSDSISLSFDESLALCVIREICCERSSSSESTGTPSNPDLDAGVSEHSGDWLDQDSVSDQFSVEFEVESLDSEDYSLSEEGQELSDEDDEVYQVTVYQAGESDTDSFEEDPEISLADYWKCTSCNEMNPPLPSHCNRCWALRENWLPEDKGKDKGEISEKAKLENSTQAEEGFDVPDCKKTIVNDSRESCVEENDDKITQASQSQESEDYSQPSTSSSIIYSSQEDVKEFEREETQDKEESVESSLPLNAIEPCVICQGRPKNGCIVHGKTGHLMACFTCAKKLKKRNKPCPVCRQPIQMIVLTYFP

Row | Compound | pIC50
1 | C[C@@H]1C(=O)N[C@H](c2cccc(Cl)c2)[C@@]2(C(=O)Nc3cc(Cl)ccc32)[C@@H]1c1cccc(Cl)c1 (racemic) [Example 20, (2′R,3R,4′S,5′S)-6-chloro-2′,4′-bis(3-chlorophenyl)-5′-methylspiro[3H-indole-3,3′-piperidine]-2,6′(1H)-dione] | 5.74
2 | O=C1C[C@@H](c2cccc(Cl)c2)[C@]2(C(=O)Nc3cc(Cl)ccc32)[C@@H](c2ccccc2)N1 (racemic) [Example 14b, (2′R,3R,4′S)-6-chloro-4′-(3-chlorophenyl)-2′-phenylspiro[3H-indole-3,3′-piperidine]-2,6′(1H)-dione] | 6.36
3 | Cc1ccccc1[C@H]1N(CC(=O)O)C(=O)C[C@@H](c2cccc(Cl)c2)[C@]12C(=O)Nc1cc(Cl)ccc12 (racemic) [Example 31, (2′R,3R,4′S)-6-chloro-4′-(3-chlorophenyl)-1′-[(hydroxycarbonyl)-methyl]-2′-(2-methylphenyl)spiro[3H-indole-3,3′-piperidine]-2,6′(1H)-dione] | 6.43
4 | CCN1C(=O)C[C@@H](c2cccc(Cl)c2)[C@]2(C(=O)Nc3cc(Cl)ccc32)[C@H]1c1ccccc1C (racemic) [Example 26b, (2′R,3R,4′S)-6-chloro-4′-(3-chlorophenyl)-1′-ethyl-2′-(2-methylphenyl)spiro[3H-indole-3,3′-piperidine]-2,6′(1H)-dione] | 6.31
5 | O=C1C[C@H](C2CCCC2)[C@@]2(C(=O)Nc3cc(Cl)ccc32)[C@H](c2cccc(Cl)c2)N1 (racemic) [Example 5d, (2′S,3S,4′R)-6-chloro-2′-(3-chlorophenyl)-4′-cyclopentylspiro[3H-indole-3,3′-piperidine]-2,6′(1H)-dione] | 5.61
